molecular target: T1, human Histamine H3 receptor (hH3R) (Homo sapiens, UniProt Q9Y5N1); assay: GTPγS Binding Assay (antagonist activity, [35S]GTPγS, (R)-α-methyl histamine 30 nM); format: biochemical; conditions: membranes from CHO cells expressing hH3R, 90 minutes at room temperature
T1 construct: expressed in transfected cells; host or cells: CHO cells (Chinese Hamster Ovary); membranes
Method: Guanosine 5′-O-(3-[^35S]thio)triphosphate [GTPγS] Binding Assay
A GTPγS binding assay can be used to investigate antagonist properties of compounds in CHO cells (Chinese Hamster Ovary) transfected with human Histamine H3 receptor (hH3R). Membranes from CHO cells expressing hH3R (10 μg/well) are diluted in GTPγS assay buffer (20 mM Hepes, 10 mM MgCl2, 100 mM NaCl, pH 7.4) and preincubated with saponine (3 μg/ml), GDP (10 μM) and PVT-WGA SPA beads (125 μg/well) (Amersham) for 30 minutes. To determine antagonist activity, (R)-α-methyl histamine (30 nM) is added in 96 well SPA plate with [^35S]GTPγS (0.2 nM) and various concentration of H3R antagonists. The GTPγS binding assay is started with addition of the mixture membrane/saponine/GDP and incubated for 90 minutes at room temperature. The amount of bound [^35S]GTPγS is determined by using the MicroBeta Trilux counter (PerkinElmer). The percentage of [^35S]GTPγS bound in each sample is calculated as a percentage of that bound control sample incubated in absence of H3 antagonist. Duplicate determinations are obtained for each concentration, and the data are analyzed using ExcelFit4 to obtain the IC50.

T1 sequence (Q9Y5N1 whole entry): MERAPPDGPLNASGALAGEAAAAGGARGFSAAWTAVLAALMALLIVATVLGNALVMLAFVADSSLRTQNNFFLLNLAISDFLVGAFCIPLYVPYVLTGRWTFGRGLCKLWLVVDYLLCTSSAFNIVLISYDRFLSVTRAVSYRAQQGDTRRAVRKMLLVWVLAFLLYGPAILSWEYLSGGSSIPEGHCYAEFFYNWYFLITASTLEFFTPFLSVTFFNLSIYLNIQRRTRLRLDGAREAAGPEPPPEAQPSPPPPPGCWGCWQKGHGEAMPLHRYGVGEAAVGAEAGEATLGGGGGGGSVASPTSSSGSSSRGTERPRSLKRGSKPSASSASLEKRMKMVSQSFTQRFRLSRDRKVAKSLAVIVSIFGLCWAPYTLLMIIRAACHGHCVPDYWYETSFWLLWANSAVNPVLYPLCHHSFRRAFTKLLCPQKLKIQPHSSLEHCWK

In order of falling IC50:
1. Cc1cc(C(=O)N2CCC3(CC2)CC(C(=O)N2CCN(C4CCC4)CC(C)(C)C2)C3)ccn1 [Example 57, (4-cyclobutyl-6,6-dimethyl-1,4-diazepan-1-yl)(7-(2-methylisonicotinoyl)-7-azaspiro[3.5]nonan-2-yl)methanone]  707 nM
2. C[C@H]1CN(C(=O)C2CC3(CCN(S(C)(=O)=O)CC3)C2)CCN1C1CCC1 [Example 59, ((S)-4-cyclobutyl-3-methylpiperazin-1-yl)(7-(methylsulfonyl)-7-azaspiro[3.5]nonan-2-yl)methanone]  368 nM
3. CC(C)N1CCCN(C(=O)C2CC3(CCN(C(=O)N(C)C)CC3)C2)CC1 [Example 56, 2-(4-isopropyl-1,4-diazepane-1-carbonyl)-N,N-dimethyl-7-azaspiro[3.5]nonane-7-carboxamide]  269 nM
4. CC(C)N1CCN(C(=O)C2CC3(CCN(S(C)(=O)=O)CC3)C2)C[C@@H]1C [Example 61, ((S)-4-isopropyl-3-methylpiperazin-1-yl)(7-(methylsulfonyl)-7-azaspiro[3.5]nonan-2-yl)methanone]  179 nM
5. CC(C)N1CCN(C(=O)C2CC3(CCN(S(C)(=O)=O)CC3)C2)C[C@H]1C [Example 60, ((R)-4-isopropyl-3-methylpiperazin-1-yl)(7-(methylsulfonyl)-7-azaspiro[3.5]nonan-2-yl)methanone]  177 nM
6. O=C(C1CC2(CCN(c3ccccc3)CC2)C1)N1CCN(C2CCC2)CC1 [Example 3, (4-cyclobutylpiperazin-1-yl)(7-phenyl-7-azaspiro[3.5]nonan-2-yl)methanone]  72.9 nM
7. Cc1cc(C(=O)N2CCC3(CC2)CC(C(=O)N2CCN(C(C)C)CC2)C3)ccn1 [Example 34, (4-isopropylpiperazin-1-yl)(7-(2-methylisonicotinoyl)-7-azaspiro[3.5]nonan-2-yl)methanone]  66.4 nM
8. CS(=O)(=O)N1CCC2(CC1)CC(C(=O)N1CCN(C3CCCC3)CC1)C2 [Example 58, (4-cyclopentylpiperazin-1-yl)(7-(methylsulfonyl)-7-azaspiro[3.5]nonan-2-yl)methanone]  63 nM
9. CC(C)N1CCN(C(=O)C2CC3(CCN(C(=O)c4ccncc4)CC3)C2)CC1 [Example 35, (7-isonicotinoyl-7-azaspiro[3.5]nonan-2-yl)(4-isopropylpiperazin-1-yl)methanone]  61.9 nM
10. O=C(C1CCCCC1)N1CCC2(CC1)CC(C(=O)N1CCN(C3CCC3)CC1)C2 [Example 7, (4-cyclobutylpiperazin-1-yl)(7-(cyclohexanecarbonyl)-7-azaspiro[3.5]nonan-2-yl)methanone]  52.9 nM
11. O=C(C1CC2(CCN(c3cnccn3)CC2)C1)N1CCN(C2CCC2)CC1 [Example 65, (4-cyclobutylpiperazin-1-yl)(7-(pyrazin-2-yl)-7-azaspiro[3.5]nonan-2-yl)methanone]  51.7 nM
12. O=C(c1ccccn1)N1CCC2(CC1)CC(C(=O)N1CCN(C3CCC3)CC1)C2 [Example 20, (4-cyclobutylpiperazin-1-yl)(7-picolinoyl-7-azaspiro[3.5]nonan-2-yl)methanone]  48 nM
13. O=C(Nc1ccccc1)N1CCC2(CC1)CC(C(=O)N1CCN(C3CCC3)CC1)C2 [Example 32, 2-(4-cyclobutylpiperazine-1-carbonyl)-N-phenyl-7-azaspiro[3.5]nonane-7-carboxamide]  47.7 nM
14. Cc1ccncc1C(=O)N1CCC2(CC1)CC(C(=O)N1CCN(C3CCC3)CC1)C2 [Example 14, (4-cyclobutylpiperazin-1-yl)(7-(4-methylnicotinoyl)-7-azaspiro[3.5]nonan-2-yl)methanone]  41.5 nM
15. N#Cc1ccc(C(=O)N2CCC3(CC2)CC(C(=O)N2CCN(C4CCC4)CC2)C3)nc1 [Example 15, 6-(2-(4-cyclobutylpiperazine-1-carbonyl)-7-azaspiro[3.5]nonane-7-carbonyl)nicotinonitrile]  31.3 nM
16. Cc1ncccc1C(=O)N1CCC2(CC1)CC(C(=O)N1CCN(C3CCC3)CC1)C2 [Example 13, (4-cyclobutylpiperazin-1-yl)(7-(2-methylnicotinoyl)-7-azaspiro[3.5]nonan-2-yl)methanone]  28.1 nM
17. O=C(C1CC2(CCN(c3ccccn3)CC2)C1)N1CCN(C2CCC2)CC1 [Example 2, (4-cyclobutylpiperazin-1-yl)(7-(pyridin-2-yl)-7-azaspiro[3.5]nonan-2-yl)methanone]  27 nM
18. Cc1ccc(C(=O)N2CCC3(CC2)CC(C(=O)N2CCN(C4CCC4)CC2)C3)cn1 [Example 12, (4-cyclobutylpiperazin-1-yl)(7-(6-methylnicotinoyl)-7-azaspiro[3.5]nonan-2-yl)methanone]  26.2 nM
19. N#Cc1cccc(C(=O)N2CCC3(CC2)CC(C(=O)N2CCN(C4CCC4)CC2)C3)c1 [Example 31, 3-(2-(4-cyclobutylpiperazine-1-carbonyl)-7-azaspiro[3.5]nonane-7-carbonyl)benzonitrile]  24.5 nM
20. O=C(C1CC2(CCN(c3cncnc3)CC2)C1)N1CCN(C2CCC2)CC1 [Example 67, (4-cyclobutylpiperazin-1-yl)(7-(pyrimidin-5-yl)-7-azaspiro[3.5]nonan-2-yl)methanone]  22.9 nM
21. CCc1cnccc1C(=O)N1CCC2(CC1)CC(C(=O)N1CCN(C3CCC3)CC1)C2 [Example 8, (4-cyclobutylpiperazin-1-yl)(7-(3-ethylisonicotinoyl)-7-azaspiro[3.5]nonan-2-yl)methanone]  22.9 nM
22. O=C(c1cncc(Cl)c1)N1CCC2(CC1)CC(C(=O)N1CCN(C3CCC3)CC1)C2 [Example 9, (7-(5-chloronicotinoyl)-7-azaspiro[3.5]nonan-2-yl)(4-cyclobutylpiperazin-1-yl)methanone]  20.8 nM
23. O=C(CCc1ccncc1)N1CCC2(CC1)CC(C(=O)N1CCN(C3CCC3)CC1)C2 [Example 29, 1-(2-(4-cyclobutylpiperazine-1-carbonyl)-7-azaspiro[3.5]nonan-7-yl)-3-(pyridin-4-yl)propan-1-one]  19.7 nM
24. O=C(c1cccnc1)N1CCC2(CC1)CC(C(=O)N1CCN(C3CCC3)CC1)C2 [Example 21, (4-cyclobutylpiperazin-1-yl)(7-nicotinoyl-7-azaspiro[3.5]nonan-2-yl)methanone]  18.2 nM
25. O=C(C1CC2(CCN(c3cccnc3)CC2)C1)N1CCN(C2CCC2)CC1 [Example 1, (4-cyclobutylpiperazin-1-yl)(7-(pyridin-3-yl)-7-azaspiro[3.5]nonan-2-yl)methanone]  17.8 nM
26. Cc1ccnc(C)c1C(=O)N1CCC2(CC1)CC(C(=O)N1CCN(C3CCC3)CC1)C2 [Example 11, (4-cyclobutylpiperazin-1-yl)(7-(2,4-dimethylnicotinoyl)-7-azaspiro[3.5]nonan-2-yl)methanone]  16.9 nM
27. CC(C)S(=O)(=O)N1CCC2(CC1)CC(C(=O)N1CCN(C3CCC3)CC1)C2 [Example 4, (4-cyclobutylpiperazin-1-yl)(7-(isopropylsulfonyl)-7-azaspiro[3.5]nonan-2-yl)methanone]  15.4 nM
28. O=C(c1ccncc1)N1CCC2(CC1)CC(C(=O)N1CCN(C3CCC3)CC1)C2 [Example 22, (4-cyclobutylpiperazin-1-yl)(7-isonicotinoyl-7-azaspiro[3.5]nonan-2-yl)methanone]  12.6 nM
29. Cc1cnccc1C(=O)N1CCC2(CC1)CC(C(=O)N1CCCN(C3CCC3)CC1)C2 [Example 44, (4-cyclobutyl-1,4-diazepan-1-yl)(7-(3-methylisonicotinoyl)-7-azaspiro[3.5]nonan-2-yl)methanone]  8.45 nM
30. O=C(c1cccnc1)N1CCC2(CC1)CC(C(=O)N1CCCN(C3CCC3)CC1)C2 [Example 47, (4-cyclobutyl-1,4-diazepan-1-yl)(7-nicotinoyl-7-azaspiro[3.5]nonan-2-yl)methanone]  8.27 nM
31. N#Cc1cccc(C(=O)N2CCC3(CC2)CC(C(=O)N2CCCN(C4CCC4)CC2)C3)c1 [Example 50, 3-(2-(4-cyclobutyl-1,4-diazepane-1-carbonyl)-7-azaspiro[3.5]nonane-7-carbonyl)benzonitrile]  7.62 nM
32. O=C(C1CC2(CCN(S(=O)(=O)c3ccccc3)CC2)C1)N1CCN(C2CCC2)CC1 [Example 6, (4-cyclobutylpiperazin-1-yl)(7-(phenylsulfonyl)-7-azaspiro[3.5]nonan-2-yl)methanone]  6.56 nM
33. O=C(C1CC2(CCN(S(=O)(=O)c3ccccc3F)CC2)C1)N1CCCN(C2CCC2)CC1 [Example 40, (4-cyclobutyl-1,4-diazepan-1-yl)(7-(2-fluorophenylsulfonyl)-7-azaspiro[3.5]nonan-2-yl)methanone]  6.22 nM
34. Cc1cnccc1C(=O)N1CCC2(CC1)CC(C(=O)N1CCN(C3CCC3)CC1)C2 [Example 23, (4-cyclobutylpiperazin-1-yl)(7-(3-methylisonicotinoyl)-7-azaspiro[3.5]nonan-2-yl)methanone]  6.06 nM
35. Cc1cncc(C(=O)N2CCC3(CC2)CC(C(=O)N2CCCN(C4CCC4)CC2)C3)c1 [Example 46, (4-cyclobutyl-1,4-diazepan-1-yl)(7-(5-methylnicotinoyl)-7-azaspiro[3.5]nonan-2-yl)methanone]  5.75 nM
36. N#Cc1ccc(C(=O)N2CCC3(CC2)CC(C(=O)N2CCCN(C4CCC4)CC2)C3)cc1 [Example 49, 4-(2-(4-cyclobutyl-1,4-diazepane-1-carbonyl)-7-azaspiro[3.5]nonane-7-carbonyl)benzonitrile]  5.28 nM

Reference: US20100130477A1, “Spirocyclobutyl Piperidine Derivatives” (ASTRAZENECA AB, priority 2008, published 2010)
